The values below are quoted from earlier work in patent publication US20060258652A1, “Beta-blockers having antioxidant and no-donor activity” (priority 2002, published 2006).

The conditions of series [1]: prophylactic use.
The conditions of series [2]: double-blind study, hypertensive patients.

In the case of `CC(C)NCC(O)COc1cccc2ccccc12` (centres unmarked) [Propranolol], the “patients in whom the incidence of migraine attacks is reduced” value in series [1] was 60%.
As for `CC(C)NCC(O)COc1ccc(CC(N)=O)cc1` (centres unmarked) [atenolol], the “efficacy in anxiety compared with propranolol” value in series [2] was “considerably better than propranolol”.
